Assay results published in paper PMC5430895 (Scientific Reports, 2017).

Key:
RASF = test: Saracatinib uptake in human RA synovial fibroblasts (HPLC-UV)
Description: The kinetic parameters Km and V max values were estimated by least-square nonlinear regression analysis using GraphPadPrism 5 software.
Unpaired student t-test was used for statistical analysis.
Cells were grown at standard conditions. Synovial fibroblasts (SF) were isolated from tissues of patients with rheumatoid arthritis (RA) (n = 8) obtained during joint replacement surgery after written informed consent was obtained. This procedure was approved by the Ethics Committee of the University of Münster, Germany; all methods were performed in accordance with the relevant guidelines and regulations. […] RA patients met the American College of Rheumatology criteria. Isolated fibroblasts were cultured under standard conditions for a maximum of eight passages. When indicated, RASF were incubated with 10 ng/ml TNFα (PeproTech, Hamburg, Germany). Cell number was evaluated with a CASEYTT cell counter (Roche Innovatis, Reutlingen, Germany).
(§1) After incubation, cells were washed with ice-cold PBS and hypoosmotic lysis was induced with 0.1% formic acid. […] The mobile phase consisted of (A) acetonitrile with 0.1% formic acid and (B) 0.1% formic acid and was delivered at 0.3 ml/min in a gradient program. After delivering 100% B for 3 min, a linear gradient to 100% A was applied within 7 min and maintained for 5 min. Thereafter, in order to re-equilibrate the column, a simple isocratic elution step with 100% eluent B was applied for at least 6 min. […] Separation was carried out on an Accucore C18 column equipped with a C18 guard column. The data were acquired by ChromQuest 5.0 chromatography software.

hOCTN2 = molecular target: T1, hOCTN2 (Homo sapiens, UniProt O76082); test: Saracatinib uptake in hOCTN2-expressing HEK293 cells (HPLC-UV); conditions: hOCTN2-HEK293, 10 µM saracatinib, 10 min; not significantly different from WT
T1 sequence (O76082 1-557): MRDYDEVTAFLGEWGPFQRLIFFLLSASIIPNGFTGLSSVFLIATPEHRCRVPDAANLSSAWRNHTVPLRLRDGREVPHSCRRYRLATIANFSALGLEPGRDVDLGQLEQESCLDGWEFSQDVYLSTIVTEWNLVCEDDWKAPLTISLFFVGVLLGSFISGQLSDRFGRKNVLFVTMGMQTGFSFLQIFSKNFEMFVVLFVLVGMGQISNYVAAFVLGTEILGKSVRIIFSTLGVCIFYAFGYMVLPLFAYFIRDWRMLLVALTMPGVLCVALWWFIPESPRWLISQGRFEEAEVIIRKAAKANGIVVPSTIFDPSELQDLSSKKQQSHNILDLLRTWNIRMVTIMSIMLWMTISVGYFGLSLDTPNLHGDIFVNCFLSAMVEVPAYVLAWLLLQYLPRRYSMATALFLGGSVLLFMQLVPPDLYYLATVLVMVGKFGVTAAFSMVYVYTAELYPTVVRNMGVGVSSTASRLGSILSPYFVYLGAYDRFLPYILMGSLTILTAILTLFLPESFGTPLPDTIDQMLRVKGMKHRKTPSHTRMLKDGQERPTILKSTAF

hOCT2 = molecular target: T2, hOCT2 (Homo sapiens, UniProt O15244); test: Saracatinib uptake in hOCT2-overexpressing HEK293 cells (HPLC-UV); conditions: hOCT2-HEK293, 10 µM saracatinib, 10 min, difference of accumulation at 4 °C and 37 °C
T2 sequence (O15244 1-555): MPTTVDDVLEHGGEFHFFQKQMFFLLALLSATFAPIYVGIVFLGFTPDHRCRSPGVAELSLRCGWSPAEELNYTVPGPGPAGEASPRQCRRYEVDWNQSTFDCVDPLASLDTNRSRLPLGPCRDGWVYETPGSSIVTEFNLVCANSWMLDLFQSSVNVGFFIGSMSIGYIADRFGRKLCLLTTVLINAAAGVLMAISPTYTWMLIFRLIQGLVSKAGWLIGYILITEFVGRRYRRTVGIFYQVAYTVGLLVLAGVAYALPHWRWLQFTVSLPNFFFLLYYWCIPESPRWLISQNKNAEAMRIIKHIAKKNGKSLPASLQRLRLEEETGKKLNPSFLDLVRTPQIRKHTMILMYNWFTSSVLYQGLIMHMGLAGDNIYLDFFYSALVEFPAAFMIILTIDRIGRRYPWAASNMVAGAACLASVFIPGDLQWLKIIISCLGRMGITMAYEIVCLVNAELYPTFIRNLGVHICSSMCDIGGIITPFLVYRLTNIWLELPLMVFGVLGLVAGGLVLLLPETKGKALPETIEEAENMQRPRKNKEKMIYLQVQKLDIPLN

hOCTN1 [1] = molecular target: T3, hOCTN1 (Homo sapiens, UniProt Q9H015); test: Saracatinib uptake in hOCTN1-overexpressing HEK293 cells (HPLC-UV)
T3 sequence (Q9H015 1-551): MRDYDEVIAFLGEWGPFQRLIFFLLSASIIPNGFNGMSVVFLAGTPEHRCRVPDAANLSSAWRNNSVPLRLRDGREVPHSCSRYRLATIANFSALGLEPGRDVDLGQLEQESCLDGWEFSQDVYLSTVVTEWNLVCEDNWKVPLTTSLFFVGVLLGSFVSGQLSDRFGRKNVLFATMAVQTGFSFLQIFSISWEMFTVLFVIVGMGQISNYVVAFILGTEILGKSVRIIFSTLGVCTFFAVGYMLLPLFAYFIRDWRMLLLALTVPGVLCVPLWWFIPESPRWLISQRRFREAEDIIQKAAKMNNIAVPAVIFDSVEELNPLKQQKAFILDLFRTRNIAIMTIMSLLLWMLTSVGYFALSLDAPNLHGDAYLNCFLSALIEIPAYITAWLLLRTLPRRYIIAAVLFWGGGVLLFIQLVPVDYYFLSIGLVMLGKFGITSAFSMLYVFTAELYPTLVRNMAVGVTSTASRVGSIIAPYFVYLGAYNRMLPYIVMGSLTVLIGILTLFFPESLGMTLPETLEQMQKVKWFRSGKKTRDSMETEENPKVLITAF
Description: Twenty-four hours before starting experiments hOCTN1 expression was induced by 1 mg/l doxycycline (Sigma-Aldrich, Steinheim, Germany). Cells were grown at standard conditions. […] Cell number was evaluated with a CASEYTT cell counter (Roche Innovatis, Reutlingen, Germany).
as §1

hOCTN1 [2] = molecular target: T3, hOCTN1; test: Inhibition of ASP+ uptake in hOCTN1-HEK293 cells (apparent affinity); type: cell-based; set-up: expressed in transfected cells; host or cells: HEK293, expression induced with 1 mg/l doxycycline; conditions: hOCTN1-HEK293, ASP+ 1 µM
hOCTN1 [3] = molecular target: T3, hOCTN1; test: Saracatinib uptake in RASF after hOCTN1 siRNA knockdown; type: in vitro ADME; set-up: expressed in transfected cells; host or cells: HEK293, expression induced with 1 mg/l doxycycline; conditions: RASF 24 h post-transfection with hOCTN1 siRNA

CN1CCN(CCOc2cc(OC3CCOCC3)c3c(Nc4c(Cl)ccc5c4OCO5)ncnc3c2)CC1 [saracatinib, N-(5-chloro-1,3-benzodioxol-4-yl)-7-[2-(4-methylpiperazin-1-yl)ethoxy]-5-(tetrahydro-2H-pyran-4-yloxy)quinazolin-4-amine]
influence of extracellular pH on saracatinib uptake (RASF; RASF): pH-dependent | increase of saracatinib uptake versus untreated controls (RASF; RASF treated for 18 h with TNFα (10 ng/ml)): 36 ± 5% | saracatinib transport capacity (Vmax) (RASF; RASF, 10 min incubation): 71.6 ± 4.1 nmol/mg protein/10 min | Km (RASF; read-out: Km of saracatinib uptake, RASF, 10 min incubation): 39.4 ± 9.4 µM | saracatinib accumulation (specific uptake) (hOCTN2): 3.8 ± 1.7 nmol/mg protein | saracatinib accumulation (specific uptake) (hOCT2): 7.0 ± 0.5 nmol/mg protein | saracatinib accumulation (specific uptake) (hOCTN1 [1]; hOCTN1-HEK293, 10 µM saracatinib, 10 min, difference of accumulation at 4 °C and 37 °C): 9.3 ± 1.6 nmol/mg protein | influence of extracellular pH on saracatinib uptake (hOCTN1 [1]; hOCTN1-HEK293 cells): pH dependent | time for which hOCTN1 mediated saracatinib accumulation is linear (hOCTN1 [1]; hOCTN1-HEK293 cells, 10 µM saracatinib): at least 15 min | maximum saracatinib uptake (Vmax) (hOCTN1 [1]; hOCTN1-HEK293 cells, 10 min incubation): 79.7 ± 5.2 nmol/mg protein | IC50 (hOCTN1 [2]): 72 nM | uptake of saracatinib (hOCTN1 [3]): 2.6 ± 0.8 nmol/mg protein | uptake of saracatinib, % remaining versus scramble siRNA (hOCTN1 [3]): 26%
